Assay results taken from doi:10.1101/2020.06.23.167346v1 (biorxiv, 2020).

Target: T1, TcAK (T. cruzi arginine kinase) (Trypanosoma cruzi, UniProt O96507)
T1 sequence (O96507 1-357): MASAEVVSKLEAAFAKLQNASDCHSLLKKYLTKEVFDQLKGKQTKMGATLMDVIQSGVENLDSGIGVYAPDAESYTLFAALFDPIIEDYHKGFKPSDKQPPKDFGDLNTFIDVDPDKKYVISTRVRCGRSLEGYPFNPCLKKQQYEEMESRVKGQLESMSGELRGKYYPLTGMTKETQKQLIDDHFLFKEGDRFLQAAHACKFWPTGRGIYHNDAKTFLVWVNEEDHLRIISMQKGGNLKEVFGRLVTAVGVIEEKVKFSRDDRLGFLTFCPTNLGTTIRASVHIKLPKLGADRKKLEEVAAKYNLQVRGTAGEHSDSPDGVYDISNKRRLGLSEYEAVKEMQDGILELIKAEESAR
Test: coupled pyruvate kinase / lactate dehydrogenase assay, NADH absorbance at […] nm
Format: biochemical

Structure (SMILES): COc1cc(CNC(=O)CCCC/C=C/C(C)C)ccc1O [capsaicin, (E)-N-(4-hydroxy-3-methoxybenzyl)-8-methyl-6-nonenamide]
- IC50: ~800 µM
